According to ChEMBL document CHEMBL4414548 (J Med Chem, 2019):

Tests used:
[1] = molecular target: JAK2/TYK2 (Homo sapiens, UniProt O60674+P29597); experiment: Inhibition of TYK2/JAK2 in IL23-stimulated human Kit225 cells by steady-glo luciferase assay
[2] = Drug concentration in Balb/c mouse at 10 mg/kg, po after 0.05 hrs; format: ADME, organism-based; details: in vivo, read-out: Drug uptake
[3] = AUClast in mouse at 10 mg/kg, po after 7 hrs; format: ADME, organism-based; design: time < 7 hr, dose 10 mg/kg, route oral; details: in vivo
[4] = molecular target: Tyrosine-protein kinase JAK1 (Homo sapiens, UniProt P23458); experiment: Inhibition of JAK1 JH1 domain (unknown origin)
Chain of Tyrosine-protein kinase JAK1 (P23458 whole entry, the tested form may be a part): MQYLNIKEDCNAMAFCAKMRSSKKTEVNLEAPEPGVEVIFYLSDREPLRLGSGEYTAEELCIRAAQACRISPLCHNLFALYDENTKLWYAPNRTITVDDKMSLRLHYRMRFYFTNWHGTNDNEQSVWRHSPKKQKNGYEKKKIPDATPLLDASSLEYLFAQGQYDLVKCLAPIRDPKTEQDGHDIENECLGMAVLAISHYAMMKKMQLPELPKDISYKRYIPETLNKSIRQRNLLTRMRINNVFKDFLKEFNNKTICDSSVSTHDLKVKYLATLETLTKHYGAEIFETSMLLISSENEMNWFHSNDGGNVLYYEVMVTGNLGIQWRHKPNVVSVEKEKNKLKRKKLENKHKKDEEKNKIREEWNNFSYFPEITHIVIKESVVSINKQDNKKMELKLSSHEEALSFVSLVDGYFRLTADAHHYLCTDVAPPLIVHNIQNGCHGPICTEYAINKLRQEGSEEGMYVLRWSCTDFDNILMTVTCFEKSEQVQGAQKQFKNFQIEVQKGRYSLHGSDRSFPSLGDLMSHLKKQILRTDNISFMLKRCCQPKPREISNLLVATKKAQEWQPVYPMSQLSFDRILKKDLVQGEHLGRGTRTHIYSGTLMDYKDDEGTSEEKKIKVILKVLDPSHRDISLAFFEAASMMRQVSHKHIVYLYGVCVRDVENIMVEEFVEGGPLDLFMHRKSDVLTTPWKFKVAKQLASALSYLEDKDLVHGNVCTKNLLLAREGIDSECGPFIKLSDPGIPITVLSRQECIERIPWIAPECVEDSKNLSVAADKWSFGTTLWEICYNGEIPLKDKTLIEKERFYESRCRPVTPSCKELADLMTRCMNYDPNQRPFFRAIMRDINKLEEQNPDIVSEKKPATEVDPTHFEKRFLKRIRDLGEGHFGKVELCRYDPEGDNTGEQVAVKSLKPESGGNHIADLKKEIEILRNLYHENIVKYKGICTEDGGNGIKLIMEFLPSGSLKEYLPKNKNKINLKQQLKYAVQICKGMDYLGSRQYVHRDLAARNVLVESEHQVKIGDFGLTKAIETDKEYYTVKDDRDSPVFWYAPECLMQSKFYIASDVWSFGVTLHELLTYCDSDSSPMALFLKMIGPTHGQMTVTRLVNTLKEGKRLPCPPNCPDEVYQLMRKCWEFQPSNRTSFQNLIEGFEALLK

[5] = Cmax in Balb/c mouse assessed as 6-((5-Fluoropyridin-2-yl)amino)-4-((2-(methylsulfonyl)phenyl)amino)nicotinamide level at 3 mg/kg, iv after 3 hrs; format: ADME, organism-based; design: dose 3 mg/kg, route intravenous; details: in vivo
[6] = Half life in rat liver microsomes; format: ADME, Microsome
[7] = Drug concentration in Balb/c mouse at 10 mg/kg, po after 1 hr; format: ADME, organism-based; details: in vivo, read-out: Drug uptake
[8] = Metabolic stability in rat liver microsomes assessed as parent compound remaining after 10 mins; format: ADME, Microsome; details: read-out: Stability
[9] = Cmax in Balb/c mouse assessed as 6-((5-Fluoropyridin-2-yl)amino)-4-((2-(methylsulfonyl)phenyl)amino)nicotinamide level at 3 mg/kg, iv after 5 hrs; format: ADME, organism-based; design: dose 3 mg/kg, route intravenous; details: in vivo
[10] = Permeability across apical to basolateral side in human Caco2 cells; format: ADME, cell-based; details: Caco-2, read-out: permeability
[11] = Drug concentration in Balb/c mouse at 3 mg/kg, iv after 0.5 hrs; format: ADME, organism-based; details: in vivo, read-out: Drug uptake
[12] = molecular target: T1, Non-receptor tyrosine-protein kinase TYK2 (Homo sapiens, UniProt P29597); experiment: Inhibition of TYK2 JH2 domain in human whole blood assessed as inhibition of IFNalpha-induced STAT5 phosphorylation preincubated for 1 hr followed by IFNalpha stimulation and measured after 15 mins by fluorescence assay; format: tissue-based
T1 sequence (P29597 whole entry, the tested form may be a part): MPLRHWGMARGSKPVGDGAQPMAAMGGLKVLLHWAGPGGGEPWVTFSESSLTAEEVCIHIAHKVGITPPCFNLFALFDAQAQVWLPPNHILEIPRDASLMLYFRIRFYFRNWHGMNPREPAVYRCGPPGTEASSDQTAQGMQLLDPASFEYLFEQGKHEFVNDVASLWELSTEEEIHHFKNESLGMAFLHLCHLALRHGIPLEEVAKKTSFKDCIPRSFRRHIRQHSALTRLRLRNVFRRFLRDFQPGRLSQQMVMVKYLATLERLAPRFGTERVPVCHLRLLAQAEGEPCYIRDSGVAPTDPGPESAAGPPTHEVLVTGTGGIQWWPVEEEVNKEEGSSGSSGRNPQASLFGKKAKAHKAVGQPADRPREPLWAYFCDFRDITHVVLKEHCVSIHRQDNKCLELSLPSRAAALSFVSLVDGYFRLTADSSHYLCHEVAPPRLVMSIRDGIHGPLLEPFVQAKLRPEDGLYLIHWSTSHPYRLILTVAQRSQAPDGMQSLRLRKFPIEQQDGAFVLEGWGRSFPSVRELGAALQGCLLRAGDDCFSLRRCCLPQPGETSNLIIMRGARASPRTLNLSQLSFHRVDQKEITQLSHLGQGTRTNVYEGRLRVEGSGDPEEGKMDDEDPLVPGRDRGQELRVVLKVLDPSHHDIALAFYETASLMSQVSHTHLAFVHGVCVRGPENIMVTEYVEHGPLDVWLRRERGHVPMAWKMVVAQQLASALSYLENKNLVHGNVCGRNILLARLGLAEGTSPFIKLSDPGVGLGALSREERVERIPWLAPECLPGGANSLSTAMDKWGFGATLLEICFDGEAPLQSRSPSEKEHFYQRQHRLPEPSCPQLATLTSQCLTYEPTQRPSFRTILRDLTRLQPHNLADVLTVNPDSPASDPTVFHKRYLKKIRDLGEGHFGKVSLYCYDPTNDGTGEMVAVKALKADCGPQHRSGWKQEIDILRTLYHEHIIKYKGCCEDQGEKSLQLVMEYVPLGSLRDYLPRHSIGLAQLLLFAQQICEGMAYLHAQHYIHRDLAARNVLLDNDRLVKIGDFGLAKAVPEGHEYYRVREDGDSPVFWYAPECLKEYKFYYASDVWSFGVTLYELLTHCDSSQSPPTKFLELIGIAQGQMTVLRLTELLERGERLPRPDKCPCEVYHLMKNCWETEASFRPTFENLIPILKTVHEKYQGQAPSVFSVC

[13] = molecular target: JAK3/JAK1 (Homo sapiens, UniProt P23458+P52333); experiment: Inhibition of JAK1/JAK3 (unknown origin) in IL-2 stimulated cells by cell based assay
Chain of JAK3/JAK1 (P52333 whole entry): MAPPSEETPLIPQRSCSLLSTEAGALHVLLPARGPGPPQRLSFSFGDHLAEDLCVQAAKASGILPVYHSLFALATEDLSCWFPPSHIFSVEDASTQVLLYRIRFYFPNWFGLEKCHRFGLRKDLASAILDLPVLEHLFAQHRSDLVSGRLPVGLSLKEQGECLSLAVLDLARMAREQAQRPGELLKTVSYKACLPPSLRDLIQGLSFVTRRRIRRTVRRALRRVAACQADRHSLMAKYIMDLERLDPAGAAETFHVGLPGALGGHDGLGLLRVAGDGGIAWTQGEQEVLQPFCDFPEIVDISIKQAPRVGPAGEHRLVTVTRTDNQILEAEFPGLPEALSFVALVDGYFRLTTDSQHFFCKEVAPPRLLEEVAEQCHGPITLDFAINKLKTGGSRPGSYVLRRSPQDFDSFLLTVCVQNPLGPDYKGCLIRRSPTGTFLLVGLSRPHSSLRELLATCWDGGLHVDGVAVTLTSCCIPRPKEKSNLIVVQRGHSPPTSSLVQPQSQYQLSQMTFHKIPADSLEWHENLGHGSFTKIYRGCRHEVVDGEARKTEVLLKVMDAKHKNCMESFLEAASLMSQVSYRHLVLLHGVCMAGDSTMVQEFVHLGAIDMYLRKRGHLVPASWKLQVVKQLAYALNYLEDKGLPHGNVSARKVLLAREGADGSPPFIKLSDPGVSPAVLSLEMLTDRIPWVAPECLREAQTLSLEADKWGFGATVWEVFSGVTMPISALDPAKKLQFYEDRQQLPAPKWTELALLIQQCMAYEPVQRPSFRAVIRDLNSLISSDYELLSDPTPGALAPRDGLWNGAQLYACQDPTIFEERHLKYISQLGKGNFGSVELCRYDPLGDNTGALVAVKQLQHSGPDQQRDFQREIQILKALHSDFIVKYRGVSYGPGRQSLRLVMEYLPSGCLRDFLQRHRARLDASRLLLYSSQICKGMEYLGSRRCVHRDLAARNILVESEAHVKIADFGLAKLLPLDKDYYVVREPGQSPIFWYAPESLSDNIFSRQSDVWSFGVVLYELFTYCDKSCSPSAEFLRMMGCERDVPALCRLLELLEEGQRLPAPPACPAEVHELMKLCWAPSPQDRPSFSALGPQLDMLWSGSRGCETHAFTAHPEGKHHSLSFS
Chain of JAK3/JAK1 (P23458 whole entry): as the sequence (P23458 whole entry, the tested form may be a part) above

[14] = Metabolic stability in human liver microsomes assessed as parent compound remaining after 10 mins; format: ADME, Microsome; details: read-out: Stability
[15] = AUClast in Balb/c mouse at 10 mg/kg, po; format: ADME, organism-based; design: dose 10 mg/kg, time 0 - last, route oral; details: in vivo
[16] = Drug concentration in Balb/c mouse at 3 mg/kg, iv after 7 hrs; format: ADME, organism-based; details: in vivo, read-out: Drug uptake
[17] = Half life in human liver microsomes; format: ADME, Microsome
[18] = Cmax in Balb/c mouse assessed as 6-((5-Fluoropyridin-2-yl)amino)-4-((2-(methylsulfonyl)phenyl)amino)nicotinamide level at 10 mg/kg, po after 1 hr; format: ADME, organism-based; design: dose 10 mg/kg, route oral; details: in vivo
[19] = Clearance in Balb/c mouse at 3 mg/kg, iv; format: ADME, organism-based; details: in vivo
[20] = Cmax in Balb/c mouse assessed as 6-((5-Fluoropyridin-2-yl)amino)-4-((2-(methylsulfonyl)phenyl)amino)nicotinamide level at 10 mg/kg, po after 5 hrs; format: ADME, organism-based; design: dose 10 mg/kg, route oral; details: in vivo
[21] = Cmax in anesthetized rabbit at 1 to 10 mg/kg, iv; format: ADME, organism-based, Oryctolagus cuniculus; details: in vivo
[22] = Half life in Balb/c mouse at 3 mg/kg, iv; format: ADME, organism-based; details: in vivo
[23] = Drug concentration in Balb/c mouse at 3 mg/kg, iv after 3 hrs; format: ADME, organism-based; details: in vivo, read-out: Drug uptake
[24] = molecular target: JAK2/JAK1 (Homo sapiens, UniProt O60674+P23458); experiment: Inhibition of JAK1/JAK2 (unknown origin) in GM-CSF stimulated cells by cell based assay
Chain of JAK2/JAK1 (P23458 whole entry): as the sequence (P23458 whole entry, the tested form may be a part) above
Chain of JAK2/JAK1 (O60674 whole entry): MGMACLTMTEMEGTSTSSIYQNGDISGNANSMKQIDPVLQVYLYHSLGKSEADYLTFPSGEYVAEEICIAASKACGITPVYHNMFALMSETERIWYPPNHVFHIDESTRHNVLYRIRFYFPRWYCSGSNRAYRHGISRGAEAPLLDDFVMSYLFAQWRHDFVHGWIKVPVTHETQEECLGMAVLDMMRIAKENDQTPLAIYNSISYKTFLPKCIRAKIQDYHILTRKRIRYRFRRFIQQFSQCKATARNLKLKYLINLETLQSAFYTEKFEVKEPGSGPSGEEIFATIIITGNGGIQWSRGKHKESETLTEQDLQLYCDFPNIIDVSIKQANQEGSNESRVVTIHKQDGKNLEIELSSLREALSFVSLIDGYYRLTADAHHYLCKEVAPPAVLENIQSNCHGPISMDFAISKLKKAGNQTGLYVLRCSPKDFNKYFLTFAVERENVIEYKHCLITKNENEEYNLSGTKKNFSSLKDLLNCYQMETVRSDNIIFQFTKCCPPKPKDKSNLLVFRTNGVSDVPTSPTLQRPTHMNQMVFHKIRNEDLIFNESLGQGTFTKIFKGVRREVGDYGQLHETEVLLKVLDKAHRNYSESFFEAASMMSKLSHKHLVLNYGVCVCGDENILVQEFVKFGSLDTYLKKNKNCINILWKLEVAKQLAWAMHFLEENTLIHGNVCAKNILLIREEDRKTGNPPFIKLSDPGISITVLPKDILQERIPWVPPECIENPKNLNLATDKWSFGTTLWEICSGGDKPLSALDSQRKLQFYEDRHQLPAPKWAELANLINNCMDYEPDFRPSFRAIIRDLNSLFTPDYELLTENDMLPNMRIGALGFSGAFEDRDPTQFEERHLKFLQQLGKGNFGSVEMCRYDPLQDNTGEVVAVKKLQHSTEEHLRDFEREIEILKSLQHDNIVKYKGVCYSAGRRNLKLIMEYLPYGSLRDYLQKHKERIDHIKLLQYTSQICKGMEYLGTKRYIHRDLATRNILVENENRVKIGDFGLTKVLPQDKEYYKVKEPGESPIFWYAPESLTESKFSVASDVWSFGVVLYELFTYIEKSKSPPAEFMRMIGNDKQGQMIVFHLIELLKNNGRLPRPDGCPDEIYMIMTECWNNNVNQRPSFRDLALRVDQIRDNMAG

[25] = Cmax in Balb/c mouse assessed as 6-((5-Fluoropyridin-2-yl)amino)-4-((2-(methylsulfonyl)phenyl)amino)nicotinamide level at 3 mg/kg, iv after 0.05 hrs; format: ADME, organism-based; design: dose 3 mg/kg, route intravenous; details: in vivo
[26] = Drug concentration in Balb/c mouse at 10 mg/kg, po after 0.5 hrs; format: ADME, organism-based; details: in vivo, read-out: Drug uptake
[27] = Drug concentration in Balb/c mouse at 3 mg/kg, iv after 0.05 hrs; format: ADME, organism-based; details: in vivo, read-out: Drug uptake
[28] = molecular target: T1, Non-receptor tyrosine-protein kinase TYK2; experiment: Inhibition of fluorescein-labeled kinase tracer binding to His-TVMV-fused TYK2 JH2 domain (575 to 869 residues) (unknown origin) measured after 90 mins by HTRF assay
[29] = Cmax in Balb/c mouse assessed as 6-((5-Fluoropyridin-2-yl)amino)-4-((2-(methylsulfonyl)phenyl)amino)nicotinamide level at 10 mg/kg, po after 0.05 hrs; format: ADME, organism-based; design: dose 10 mg/kg, route oral; details: in vivo
[30] = molecular target: Non-receptor tyrosine-protein kinase TYK2 (Mus musculus, UniProt Q9R117); experiment: Inhibition of TYK2 JH2 domain in mouse whole blood assessed as inhibition of IFNalpha-induced STAT1 phosphorylation preincubated for 1 hr followed by IFNalpha stimulation and measured after 15 mins by fluorescence assay; format: tissue-based
[31] = Cmax in Balb/c mouse assessed as 6-((5-Fluoropyridin-2-yl)amino)-4-((2-(methylsulfonyl)phenyl)amino)nicotinamide level at 3 mg/kg, iv after 1 hr; format: ADME, organism-based; design: dose 3 mg/kg, route intravenous; details: in vivo
[32] = Cmax in Balb/c mouse assessed as 6-((5-Fluoropyridin-2-yl)amino)-4-((2-(methylsulfonyl)phenyl)amino)nicotinamide level at 10 mg/kg, po after 3 hrs; format: ADME, organism-based; design: dose 10 mg/kg, route oral; details: in vivo
[33] = Cmax in mouse at 10 mg/kg, po after 7 hrs; format: ADME, organism-based; design: dose 10 mg/kg, route oral; details: in vivo
[34] = Half life in cynomolgus monkey liver microsomes; format: ADME, Macaca fascicularis, Microsome
[35] = Drug concentration in Balb/c mouse at 10 mg/kg, po after 7 hrs; format: ADME, organism-based; details: in vivo, read-out: Drug uptake
[36] = Drug concentration in Balb/c mouse at 3 mg/kg, iv after 5 hrs; format: ADME, organism-based; details: in vivo, read-out: Drug uptake
[37] = Volume of distribution at steady state in Balb/c mouse at 3 mg/kg, iv; format: ADME, organism-based; details: in vivo, read-out: Vdss
[38] = Cmax in Balb/c mouse assessed as 6-((5-Fluoropyridin-2-yl)amino)-4-((2-(methylsulfonyl)phenyl)amino)nicotinamide level at 3 mg/kg, iv after 7 hrs; format: ADME, organism-based; design: dose 3 mg/kg, route intravenous; details: in vivo
[39] = Metabolic stability in mouse liver microsomes assessed as parent compound remaining after 10 mins; format: ADME, Microsome; details: read-out: Stability
[40] = molecular target: T1, Non-receptor tyrosine-protein kinase TYK2; experiment: Inhibition of TYK2 JH1 domain (unknown origin)
[41] = Half life in mouse liver microsomes; format: ADME, Microsome
[42] = Cmax in Balb/c mouse assessed as 6-((5-Fluoropyridin-2-yl)amino)-4-((2-(methylsulfonyl)phenyl)amino)nicotinamide level at 3 mg/kg, iv after 0.5 hrs; format: ADME, organism-based; design: dose 3 mg/kg, route intravenous; details: in vivo
[43] = Drug concentration in Balb/c mouse at 10 mg/kg, po after 5 hrs; format: ADME, organism-based; details: in vivo, read-out: Drug uptake
[44] = molecular target: Tyrosine-protein kinase JAK2 (Homo sapiens, UniProt O60674); experiment: Inhibition of JAK2 JH1 domain (unknown origin)
Chain of Tyrosine-protein kinase JAK2 (O60674 whole entry, the tested form may be a part): as the sequence (O60674 whole entry) above

[45] = Half life in dog liver microsomes; format: ADME, Canis lupus familiaris, Microsome
[46] = Drug concentration in Balb/c mouse at 10 mg/kg, po after 3 hrs; format: ADME, organism-based; details: in vivo, read-out: Drug uptake
[47] = molecular target: JAK1/TYK2 (Homo sapiens, UniProt P23458+P29597); experiment: Inhibition of TYK2/JAK1 in IFNalpha-stimulated human Kit225 cells by steady-glo luciferase assay
Chain of JAK1/TYK2 (P23458 whole entry): as the sequence (P23458 whole entry, the tested form may be a part) above
Chain of JAK1/TYK2 (P29597 whole entry): as the sequence (P29597 whole entry, the tested form may be a part) above

[48] = Cmax in Balb/c mouse assessed as 6-((5-Fluoropyridin-2-yl)amino)-4-((2-(methylsulfonyl)phenyl)amino)nicotinamide level at 10 mg/kg, po after 7 hrs; format: ADME, organism-based; design: dose 10 mg/kg, route oral; details: in vivo
[49] = AUClast in Balb/c mouse at 3 mg/kg, iv; format: ADME, organism-based; design: dose 3 mg/kg, route intravenous, time 0 - last; details: in vivo
[50] = Efflux ratio of permeability in human Caco2; format: ADME, cell-based; details: Caco-2
[51] = Unbound drug level in rabbit at 1 to 10 mg/kg, iv; format: ADME, organism-based, Oryctolagus cuniculus; details: in vivo
[52] = Cmax in Balb/c mouse assessed as 6-((5-Fluoropyridin-2-yl)amino)-4-((2-(methylsulfonyl)phenyl)amino)nicotinamide level at 10 mg/kg, po after 0.5 hrs; format: ADME, organism-based; design: dose 10 mg/kg, route oral; details: in vivo
[53] = Drug concentration in Balb/c mouse at 3 mg/kg, iv after 1 hr; format: ADME, organism-based; details: in vivo, read-out: Drug uptake

Chain of JAK2/TYK2 (O60674 whole entry): as the sequence (O60674 whole entry) above
Chain of JAK2/TYK2 (P29597 whole entry): as the sequence (P29597 whole entry, the tested form may be a part) above

[2H]C([2H])([2H])NC(=O)c1cnc(Nc2ccc(F)cn2)cc1Nc1ccccc1S(C)(=O)=O
IC50 [1]: 110 nM | concentration at 0.05 h [2]: 750 nM | AUC(0-t) at 7 h [3]: 7.83 µM·h | IC50 [4]: > 2000 nM | Cmax [5]: 4.9 nM | half-life [6]: 44 min | concentration at 1 h [7]: 1400 nM | remaining at 10 min [8]: 91% | Cmax [9]: 4.9 nM | Papp A→B [10]: 5.8 ×10⁻⁶ cm/s | concentration at 0.5 h [11]: 2400 nM | IC50 [12]: 160 nM | IC50 [13]: > 12500 nM | remaining at 10 min [14]: 85% | AUC(0-t) [15]: 7.8 µM·h | concentration at 7 h [16]: 47 nM | half-life [17]: 69 min | Cmax [18]: 4.9 nM | clearance [19]: 25 mL/min/kg | Cmax [20]: 4.9 nM | Cmax [21]: 20200 nM | half-life [22]: 72 min | concentration at 3 h [23]: 470 nM | IC50 [24]: > 12500 nM | Cmax [25]: 4.9 nM | concentration at 0.5 h [26]: 1400 nM | concentration at 0.05 h [27]: 2800 nM | IC50 [28]: 0.49 nM | Cmax [29]: 4.9 nM | IC50 [30]: 600 nM | Cmax [31]: 4.9 nM | Cmax [32]: 4.9 nM | Cmax [33]: 1440 nM | half-life [34]: 6 min | concentration at 7 h [35]: 260 nM | concentration at 5 h [36]: 270 nM | Vd [37]: 2.7 L/kg | Cmax [38]: 4.9 nM | remaining at 10 min [39]: 81% | IC50 [40]: > 50000 nM | half-life [41]: 35 min | Cmax [42]: 4.9 nM | concentration at 5 h [43]: 1300 nM | IC50 [44]: > 50000 nM | half-life [45]: 16 min | concentration at 3 h [46]: 1300 nM | IC50 [47]: 53 nM | Cmax [48]: 4.9 nM | AUC(0-t) [49]: 5 µM·h | efflux ratio [50]: 9.3 | fraction unbound [51]: 0.13 | Cmax [52]: 4.9 nM | concentration at 1 h [53]: 1500 nM
